According to article PMC3493614, “Structural and Binding Properties of Two Paralogous Fatty Acid Binding Proteins of Taenia solium Metacestode” (PLoS Neglected Tropical Diseases, 2012):
Several values for one entry are separate records, joined by “and”; a condition that tells them apart may be missing. Identical values can stand only once. Like-named read-outs stand apart in the source and are kept apart here.

Tests used:
recTsMFABP2 [1] = molecular target: T1, recTsMFABP2 (Taenia solium, UniProt F2WVQ3); experiment: Fluorometric ligand binding assay, recombinant TsMFABP2; conditions: rTsMFABP2:retinol complex; oleic acid 5 µM (Figure 2D); protein 1 µM, retinol 5 mM
T1 sequence (F2WVQ3 entry or part of it): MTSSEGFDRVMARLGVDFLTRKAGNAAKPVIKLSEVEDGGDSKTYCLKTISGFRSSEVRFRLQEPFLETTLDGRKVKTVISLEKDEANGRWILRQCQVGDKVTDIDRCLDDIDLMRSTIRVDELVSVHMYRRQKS

recTsMFABP1 [2] = molecular target: T2, recTsMFABP1 (Taenia solium, UniProt Q2XNL7); experiment: Fluorometric ligand binding assay, recombinant TsMFABP1; conditions: rTsMFABP1:DAUDA complex; oleic acid 5 µM (Figure 2B); protein 1 µM, DAUDA 0.1 µM
T2 sequence (Q2XNL7 entry or part of it): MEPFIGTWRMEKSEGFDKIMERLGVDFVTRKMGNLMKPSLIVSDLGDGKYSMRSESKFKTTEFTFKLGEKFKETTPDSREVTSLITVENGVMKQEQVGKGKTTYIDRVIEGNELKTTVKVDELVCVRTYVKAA

recTsMFABP2 [3] = molecular target: T1, recTsMFABP2; experiment: Fluorometric ligand binding assay, recombinant TsMFABP2; conditions: for Vmax: rate calculated from relative fluorescence (Vmax = Fmax), ligand 0.1-10 µM (FA analogs) or 0.1-10 mM (retinol); for Vmax/K d (binding rate constant): ratio of Vmax to K d
Method: (§1) All the proteins were delipidated for 2 h using Sephadex-LH (Sigma-Aldrich) prior to assay. The ligand binding profile of the native and rTsMFABPs were detected spectrofluorometrically using fluorescent FA analogs, including 11-([5-dimethylaminonaphthalene-1-sulfonyl]amino)undecannoic acid (DAUDA), dansyl-DL-α-aminocaprylic acid (DACA) (Molecular Probes), retinol (Sigma-Aldrich) and naturally fluorescent cis-parinaric acid (cPnA; Molecular Probes). Fluorescence emission spectra were recorded at 25°C with a total volume of 200 µl per well using black 96-well Microfluor 1 plates and an Infinite M-200 automated multi-detector (Tecan). The emission and excitation wavelengths for DAUDA, DACA, retinol and cPnA were 519, 519, 325 and 420 nm, and 345, 350, 350 and 315 nm, respectively. We included the TsM 120-kDa protein (10 µM) and recombinant 18 kDa (5 µM; a subunit of the TsM 120-kDa protein), which were proven not to have FA-binding activity, as negative controls during the measurements. All fluorescent stock compounds (10 mM dissolved in ethanol) were stored at −20°C in a dark room and were freshly diluted in ethanol prior to use. The equilibrium dissociation constants (K d) of the proteins bound to DAUDA, retinol and cPnA were estimated by adding increasing concentrations of respective ligands (0.1–10 µM for FA analogs and 0.1–10 mM for retinol) in a micro-quartz plate. Fluorescence intensities were normalized to the peak fluorescence intensity and corrected for background fluorescence of the ligand alone at each concentration. Corrected data were analyzed using the one-site saturation model and best fit algorithm contained in SigmaPlot9 software (y = V max X/K m+X, where y is relative fluorescence and X is concentrations of lipid ligand. V max can be substituted as Fmax [maximum fluorescence]). Competition assays were carried out by monitoring the change in fluorescence intensity at the peak transmission wavelength measured for either rTsMFABPs:DAUDA, rTsMFABPs:retinol or rTsMFABPs:cPnA complex in the presence of 10-fold excess oleic acid.
(§2) The partially purified native and recombinant proteins were subjected to delipidation. Each of the proteins (1 µM) was used in a hydrophobic ligand binding assay against the polarity-sensitive fluorophore-tagged FA analogs (0.1 µM) and retinol (5 mM). […] The TsMFABP2 also bound to DAUDA, although its specific activity was lower than that of the TsMFABP1. […] The retinol-binding activity of rTsMFABP2 appeared to be higher than that of rTsMFABP1. […] No binding activity was detected in the reactions with the TsM 120-kDa and recombinant 18-kDa proteins, which were used as negative controls.

recTsMFABP1 [4] = molecular target: T2, recTsMFABP1; experiment: Fluorometric ligand binding assay, recombinant TsMFABP1; conditions: for Vmax: rate calculated from relative fluorescence (Vmax = Fmax), ligand 0.1-10 µM (FA analogs) or 0.1-10 mM (retinol); for Vmax / Kd: one-site saturation model, 25°C; for Vmax/K d (binding rate constant): ratio of Vmax to K d; for Kd: ligand 0.1-10 µM
Method: as §1, §2

[5] = protein 1 µM, FA analog 0.1 µM, data not shown
[6] = one-site saturation model, 25°C
[7] = one-site saturation model, ligand 0.1-10 µM, 25°C, read-out: K d

Row | SMILES | Competition with retinol binding (recTsMFABP2 [1]) | Competition with DAUDA binding (recTsMFABP1 [2]) | Binding (fluorescence interaction mode) (recTsMFABP2 [3]; [5]) | Binding (fluorescence interaction mode) (recTsMFABP1 [4]; [5]) | Kd (recTsMFABP2 [3]) [µM] | Vmax (recTsMFABP2 [3]; [6]) | Vmax/K d (binding rate constant) (recTsMFABP2 [3]) | Vmax/K d (binding rate constant) (recTsMFABP2 [3]; listed as retinol) | Vmax (recTsMFABP1 [4]) | Vmax/K d (binding rate constant) (recTsMFABP1 [4]) | Vmax/K d (binding rate constant) (recTsMFABP1 [4]; listed as retinol) | Kd (recTsMFABP2 [3]; [7]) [µM] | Kd (recTsMFABP1 [4]) [µM]
1 | CCCCCCCC/C=C\CCCCCCCC(=O)O [oleic acid] | significant replacement of retinol from the binding site | competitively inhibited by oleic acid in a dose-dependent manner |  |  |  |  |  |  |  |  |  |  | 
2 | CCCCCCC(NS(=O)(=O)c1cccc2c(N(C)C)cccc12)C(=O)O (racemic) [DACA, dansyl-DL-α-aminocaprylic acid] |  |  | interaction modes comparable to those with DAUDA | interaction modes comparable to those with DAUDA |  |  |  |  |  |  |  |  | 
3 | CC1=C(/C=C/C(C)=C/C=C/C(C)=C/CO)C(C)(C)CCC1 [Retinol, retinol] |  |  |  |  | 980 ± 80 | 207.1±19.6 | 211.3±20.3 | 211.3 | 306.3±31.4 | 172.1±15.5 | 172.1 |  | 
4 | CN(C)c1cccc2c(S(=O)(=O)NCCCCCCCCCCC(=O)O)cccc12 [DAUDA, 11-([5-dimethylaminonaphthalene-1-sulfonyl]amino)undecannoic acid] |  |  |  |  |  | 364.2±3.5 | 38.7 and 38.7±3.94 |  | 299.5±3.0 | 139.3 and 139.3±12.7 |  | 9.4 ± 0.89 | 2.15 ± 0.14
5 | CC\C=C/C=C/C=C/C=C\CCCCCCCC(=O)O [cPnA, cis-parinaric acid] |  |  |  |  |  | 309.1±28.4 | 483.0 and 483.0±47.1 |  | 608.4±57.8 | 2172.9 and 2172.9±214.6 |  | 0.64 ± 0.04 | 0.28 ± 0.02
